Test system: human embryonic stem cell derived neural stem cells (NSCs)
Assay: Neural stem cell proliferation assay (neurogenesis assay)
Format: cell-based
Conditions: Homo sapiens, Neural stem cell, 96 h; Table 1, novel compounds; concentration at which 150% activity of control (100%) is reached; ATP levels (CellTiterGlo) after 4 days incubation
Method: Neural Stem Cell Proliferation Assay
Neurogenic properties of small molecules are determined based on the proliferation of human embryonic stem cell derived neural stem cells (NSCs) which were derived via a dual smad inhibition as previously described (Chambers, S. M., et al., Highly efficient neural conversion of human ES and iPS cells by dual inhibition of SMAD signaling, Nature biotechnology, 2009. 27 (3): p. 275-80.)
Compounds respond is measured by the increase in cells based on ATP levels (Promega:CellTiterGlo®) after an incubation period of 4 days.
NSCs are thawed and expanded over 3 passages. On the 14th day, NSCs are seeded in Polyornithin/Laminin coated 384 well plates at a cell density of 21,000 cells/cm^2 in a media volume of 38 μl.
4 hours after cell seeding, compound solutions are added at a volume of 2 μl. Stock solutions of the compounds (water, 5% DMSO) are diluted to obtain a dose response (11 points, dilution factor is 2), ranging from 8 μM to 8 nM. Controls are run to consistently determine the neurogenic properties of the cells:
Negative (neutral) control is cell culture Media (final DMSO concentration: 0.25%).
Positive controls are: • 1. cell culture Media+100 ng/ml FGF2 (final DMSO concentration: 0.1%) • 2. cell culture Media+20 ng/ml EGF (final DMSO concentration: 0.1%) • 3. cell culture Media+100 ng/ml Wnt3a (final DMSO concentration: 0.1%)
After 4 days incubation at 37° C., 5% CO2, the amount of ATP per well is quantified. The ATP concentration is proportional to the cell number. ATP is quantified by using the Promega CellTiterGlo® kit. The CellTiterGlo® reagents contain a cell lysis buffer, a thermo stable luciferase (UltraGlo™ recombinant luciferase), magnesium and luciferin. Luciferin reacts with ATP producing oxyluciferin, AMP and light. The luminescence signal is proportional to the ATP content.
The value of negative (neutral) control is determined for each assay plate by taking the average of 16 negative control wells. The neurogenic compound response is calculated for each compound as (compound/Negative Control)*100.
The values of EC150 from the dose response curve are determined for each test compound. The EC150 is the compound concentration at which 150% activity of control (100%) is reached.

Going from `CC(NC(=O)c1ccc2cncc(-c3ccc(Cl)cc3)c2n1)c1cccc(S(C)(=O)=O)c1` (single isomer, unassigned; (-)) [Example 52, (−)-8-(4-Chloro-phenyl)-[1,6]naphthyridine-2-carboxylic acid [(S or R)-1-(3-methanesulfonyl-phenyl)-ethyl]-amide] to `O=C(NCc1ccccc1)c1ccc2cncc(-c3ccc(Cl)cc3)c2n1` [Example 13, N-Benzyl-8-(4-chlorophenyl)-1,6-naphthyridine-2-carboxamide], the EC (150% of control) falls from 0.8 µM to 0.05 µM (16-fold).

Compared with `COCCNC(=O)c1ccc2cncc(Br)c2n1` [Example 1, 8-Bromo-N-(2-methoxyethyl)-1,6-naphthyridine-2-carboxamide], `COCCNC(=O)c1ccc2cnccc2n1` [Example 4, N-(2-Methoxyethyl)-1,6-naphthyridine-2-carboxamide] is 2.4-fold lower in EC (150% of control): 1.2 µM for the first, 0.5 µM for the second.

First: COCCNC(=O)c1ccc2cncc(-c3ccc(OC)cc3)c2n1 [Example 2, N-(2-Methoxyethyl)-8-(4-methoxyphenyl)-1,6-naphthyridine-2-carboxamide]
Second: COCCNC(=O)c1ccc2cncc(-c3ccc(Cl)cc3)c2n1 [Example 6, 8-(4-Chlorophenyl)-N-(2-methoxyethyl)-1,6-naphthyridine-2-carboxamide]
The EC (150% of control) of the first is 1.5-fold higher: 0.03 µM for the first, 0.02 µM for the second.

`COCCNC(=O)c1ccc2cncc(-c3cccc(OC)c3)c2n1` [Example 3, N-(2-Methoxyethyl)-8-(3-methoxyphenyl)-1,6-naphthyridine-2-carboxamide] and `COCCNC(=O)c1ccc2cncc(-c3cccc(Cl)c3)c2n1` [Example 7, 8-(3-Chlorophenyl)-N-(2-methoxyethyl)-1,6-naphthyridine-2-carboxamide] are within 1.5-fold of each other in EC (150% of control): 0.26 µM for the first, 0.32 µM for the second.

`COCCNC(=O)c1ccc2cncc(-c3ccccc3OC)c2n1` [Example 5, N-(2-Methoxyethyl)-8-(2-methoxyphenyl)-1,6-naphthyridine-2-carboxamide] and `COCCNC(=O)c1ccc2cncc(-c3ccccc3Cl)c2n1` [Example 8, 8-(2-Chlorophenyl)-N-(2-methoxyethyl)-1,6-naphthyridine-2-carboxamide] are within 1.5-fold of each other in EC (150% of control): 0.26 µM for the first, 0.33 µM for the second.

Going from `O=C(NCc1ccncc1)c1ccc2cncc(Br)c2n1` [Example 9, 8-Bromo-[1,6]naphthyridine-2-carboxylic acid (pyridin-4-ylmethyl)-amide] to `O=C(NCc1ccccc1)c1ccc2cncc(Br)c2n1` [Example 10, N-Benzyl-8-bromo-1,6-naphthyridine-2-carboxamide], the EC (150% of control) falls from 1.27 µM to 0.76 µM (1.7-fold).

First: COc1cccc(-c2cncc3ccc(C(=O)NCc4ccccc4)nc23)c1 [Example 11, N-Benzyl-8-(3-methoxyphenyl)-1,6-naphthyridine-2-carboxamide]
Second: O=C(NCc1ccccc1)c1ccc2cncc(-c3cccc(Cl)c3)c2n1 [Example 14, N-Benzyl-8-(3-chlorophenyl)-1,6-naphthyridine-2-carboxamide]
The EC (150% of control) of the first is 18-fold lower: 0.03 µM for the first, 0.54 µM for the second.

Going from `COc1ccccc1-c1cncc2ccc(C(=O)NCc3ccccc3)nc12` [Example 12, N-Benzyl-8-(2-methoxyphenyl)-1,6-naphthyridine-2-carboxamide] to `O=C(NCc1ccccc1)c1ccc2cncc(-c3ccccc3Cl)c2n1` [Example 15, N-Benzyl-8-(2-chlorophenyl)-1,6-naphthyridine-2-carboxamide], the EC (150% of control) rises from 0.17 µM to 0.58 µM (3.4-fold).

Compared with `O=C(NCc1ccccc1)c1ccc2cncc(-c3ccncc3)c2n1` [Example 16, N-Benzyl-8-(pyridin-4-yl)-1,6-naphthyridine-2-carboxamide], `O=C(NCc1ccccc1)c1ccc2cncc(-c3cccnc3)c2n1` [Example 17, N-Benzyl-8-(pyridin-3-yl)-1,6-naphthyridine-2-carboxamide] is 2.8-fold higher in EC (150% of control): 0.04 µM for the first, 0.11 µM for the second.

First: COCCNC(=O)c1ccc2cncc(-c3ccncc3)c2n1 [Example 18, N-(2-Methoxyethyl)-8-(pyridin-4-yl)-1,6-naphthyridine-2-carboxamide]
Second: COCCNC(=O)c1ccc2cncc(-c3cccnc3)c2n1 [Example 19, N-(2-methoxyethyl)-8-(pyridin-3-yl)-1,6-naphthyridine-2-carboxamide]
The EC (150% of control) of the first is 1.6-fold lower: 0.31 µM for the first, 0.49 µM for the second.

`COc1ccc(-c2cncc3ccc(C(=O)NCCc4ccccc4)nc23)cc1` [Example 20, 8-(4-Methoxyphenyl)-N-phenethyl-1,6-naphthyridine-2-carboxamide] and `COc1ccc(-c2cncc3ccc(C(=O)NCCCc4ccccc4)nc23)cc1` [Example 25, 8-(4-Methoxyphenyl)-N-(3-phenylpropyl)-1,6-naphthyridine-2-carboxamide] are within 1.5-fold of each other in EC (150% of control): 0.8 µM for the first, 0.67 µM for the second.

First: COc1ccc(-c2cncc3ccc(C(N)=O)nc23)cc1 [Example 21, 8-(4-Methoxyphenyl)-1,6-naphthyridine-2-carboxamide]
Second: COc1ccc(-c2cncc3ccc(C(=O)NCc4cccnc4)nc23)cc1 [Example 22, 8-(4-Methoxyphenyl)-N-(pyridin-3-ylmethyl)-1,6-naphthyridine-2-carboxamide]
The EC (150% of control) of the first is 3-fold lower: 0.01 µM for the first, 0.03 µM for the second.

First: COc1ccc(-c2cncc3ccc(C(=O)NCc4ccccn4)nc23)cc1 [Example 23, 8-(4-Methoxyphenyl)-N-(pyridin-2-ylmethyl)-1,6-naphthyridine-2-carboxamide]
Second: COc1ccc(-c2cncc3ccc(C(=O)N(C)Cc4ccccc4)nc23)cc1 [Example 33, N-Benzyl-8-(4-methoxyphenyl)-N-methyl-1,6-naphthyridine-2-carboxamide]
The EC (150% of control) of the first is 7.3-fold lower: 0.03 µM for the first, 0.22 µM for the second.

Going from `Cc1ccnc(-c2cncc3ccc(C(=O)NCc4ccccc4)nc23)c1` [Example 24, N-Benzyl-8-(4-methylpyridin-2-yl)-1,6-naphthyridine-2-carboxamide] to `O=C(NCc1ccncc1)c1ccc2cncc(-c3ccccc3Cl)c2n1` [Example 30, 8-(2-Chlorophenyl)-N-(pyridin-4-ylmethyl)-1,6-naphthyridine-2-carboxamide], the EC (150% of control) falls from 0.94 µM to 0.49 µM (1.9-fold).

Compared with `COc1cccc(-c2cncc3ccc(C(=O)NCc4ccncc4)nc23)c1` [Example 26, 8-(3-Methoxyphenyl)-N-(pyridin-4-ylmethyl)-1,6-naphthyridine-2-carboxamide], `O=C(NCc1ccncc1)c1ccc2cncc(-c3cccc(Cl)c3)c2n1` [Example 29, 8-(3-Chlorophenyl)-N-(pyridin-4-ylmethyl)-1,6-naphthyridine-2-carboxamide] is 1.8-fold higher in EC (150% of control): 0.28 µM for the first, 0.51 µM for the second.

First: COc1ccccc1-c1cncc2ccc(C(=O)NCc3ccncc3)nc12 [Example 27, 8-(2-Methoxyphenyl)-N-(pyridin-4-ylmethyl)-1,6-naphthyridine-2-carboxamide]
Second: O=C(NCc1ccncc1)c1ccc2cncc(-c3ccc(Cl)cc3)c2n1 [Example 28, 8-(4-Chlorophenyl)-N-(pyridin-4-ylmethyl)-1,6-naphthyridine-2-carboxamide]
The EC (150% of control) of the first is 5.6-fold higher: 0.56 µM for the first, 0.1 µM for the second.

Going from `O=C(NCc1ccncc1)c1ccc2cncc(-c3cccnc3)c2n1` [Example 31, 8-(Pyridin-3-yl)-N-(pyridin-4-ylmethyl)-1,6-naphthyridine-2-carboxamide] to `O=C(NCc1ccncc1)c1ccc2cncc(-c3ccncc3)c2n1` [Example 32, 8-(Pyridin-4-yl)-N-(pyridin-4-ylmethyl)-1,6-naphthyridine-2-carboxamide], the EC (150% of control) falls from 0.54 µM to 0.29 µM (1.9-fold).
